Assays:
G. clavigera WT [1] = assay: Mycelium growth on MEA with monoterpenes; format: cell-based, Grosmannia clavigera; settings: for growth delay of G. clavigera WT: 200 μL individual monoterpene or MT; for fungal growth rate, G. clavigera WT: 200 μL monoterpene, linear phase after delay
Method: (§1) Mono- and diterpene treatments were performed on glass petri dishes with the mono- and diterpenes applied to filter paper that was placed in the cover of the petri dish, which was sealed by Duraseal film. Specifically, plugs of actively growing G. clavigera fungal cultures on MEA were transferred into the center of glass petri dishes containing yeast nitrogen base-complete medium (YNB-CM; 0.17% YNB without amino acids, 1.5% granulated agar, 1% maltose, 0.1% PHP, and 0.3% asparagine). Two (2×4 cm) strips of filter paper were placed inside the lid of the plate and 200 μL of individual mono- or diterpenes or a mixture of monoterpenes (MT) were added onto the filter paper. The glass plates were sealed with DuraSeal™ film (Laboratory Sealing Film, VWR, cat #89031-573) and incubated at ˜22° C. in a sealed glass container for 7 days or until the mycelium reached the edge of the plates. Colony diameters were measured daily.
(§2) Colony morphologies and growth rates were examined for G. clavigera WT and mutant Δgcabc-g1 grown on malt extract agar (MEA) in the presence and absence of 200 μL of a mixture of monoterpenes as described in Example 3.A.1. above. Fungal growth rates were calculated (mm/day). Mycelium growth rates were also determined in the presence or absence of 200 μL of individual monoterpenes, including R-(+)-limonene, 3-carene, α-pinene and β-pinene, or 200 μL of a mixture of monoterpenes (R-(+)-limonene, 3-carene, α-pinene and β-pinene at a ratio of 5:3:1:1). Fungal spores were incubated for 3 days on MEA overlaid with cellophane (Amersham Biosciences, cat #80611781); then the young mycelia were treated with individual monoterpenes or a mixture of monoterpenes (200 μL) for 3-4 days before being transferred onto YNB. In YNB, monoterpenes were provided on filter paper as described in Example 3.A.1. and if necessary were re-supplied biweekly until the mycelia covered at least half of the media surface (3-4 weeks). Colony diameters were measured daily. Fungal growth rates were calculated (mm/day). Results were calculated as the average of 5 replicates and standard deviation was calculated.

mutant Δgcabc-g1 [2] = assay: Mycelium growth on MEA with monoterpenes; format: cell-based, Grosmannia clavigera; settings: for growth delay of mutant Δgcabc-g1: 200 μL individual monoterpene or MT; for fungal growth rate, mutant Δgcabc-g1 / growth rate of mutant Δgcabc-g1 lower than G. clavigera WT: 200 μL monoterpene; for fungal growth rate, mutant Δgcabc-g1: linear phase after delay
Method: as §1
Agrobacterium GV3101, a laboratory stock, was used to transform G. clavigera. The whole gene open reading frame (ORF) encoding GcABC-G1 in G. clavigera was replaced with the selective gene marker hygromycin B (hph). Gene replacement (deletion) was verified by PCR amplification of adjacent regions, target region and selective marker gene, and copy numbers were determined by southern blot. The G. clavigera GcABC-G1 deletion mutant was designated mutant Δgcabc-g1.
as §2

[3] = tested on: G. clavigera WT fungal spores; assay: Asexual spore germination and survival with monoterpenes; format: cell-based, Grosmannia clavigera; settings: MEA, 200 μL monoterpene; for spore germination inhibition, G. clavigera: counted after 6 days; for spore germination partially reduced, G. clavigera: 6 days, relative to non-treated control
Method: (§3) G. clavigera WT or mutant Δgcabc-g1 fungal spores were collected from 7-14 day old cultures grown on MEA (0.83% Oxoid™ malt extract agar and 0.75% technical agar, pH was adjusted to 5-6). Mycelium debris was removed by filtration (BD Falcon Cell Strainers; cat #08-771-1). Spore concentrations were determined using a haemocytometer and further diluted to ˜2 spores/μL. 100 μL of the spore suspension was spread on MEA in glass plates. For monoterpene treatment, two (2×4 cm) strips of filter paper were placed inside the lid of the plate and 200 μL of a mixture of monoterpenes were added onto the filter paper. For diterpene treatment, 100 μL of the spore suspension was spread on MEA containing 0.01% of a mixture of diterpenes (abietic acid, dehydroabietic acid and isopimaric acid). The glass plates were sealed with DuraSeal™ film (Laboratory Sealing Film, VWR, cat #89031-573) and incubated at ˜22° C. in a sealed glass container. The germinated spores were counted daily; at day 6 the monoterpenes were removed and the MEA plates were further incubated for 4 days to assess the survival of the spores.

[4] = tested on: mutant Δgcabc-g1 fungal spores; assay: as above; format: cell-based, Grosmannia clavigera
Method: as §3

Wildtype G. clavigera = assay: Growth on YNB with monoterpenes as sole carbon source; format: cell-based, Grosmannia clavigera; settings: 200 μL, 4 weeks
Method: (§4) Fungal spores were incubated for 3 days on 1% malt extract agar (MEA) overlaid with cellophane (Amersham Biosciences, cat #80611781), then the young mycelia were treated with a mixture of monoterpenes (200 μL) for 3-4 days before being transferred onto yeast nitrogen base (YNB) medium with a mixture of monoterpenes (MT) as sole carbon source (YNB+MT; […] YNB without amino acids, but with ammonium sulphate) in glass plates. The synthetic monoterpenoid blend contained R-(+)-limonene, 3-carene, α-pinene and β-pinene at a ratio of 5:3:1:1. If necessary monoterpenes were re-supplied biweekly until the mycelia covered at least half of the media surface (3-4 weeks). RNA-seq analysis was performed after 10 days. G. clavigera grown on YNB+1% mannose as the sole carbon source was used as a control.
(§5) Experiments were performed as described in Example 3.A.2. Growth of wildtype G. clavigera and the mutant Δgcabc-g1 was determined utilizing yeast nitrogen base (YNB)+either 10 μL or 200 μL of (+)-limonene, α-pinene or β-pinene. Growth was determined after 4 weeks. Monoterpenes were re-supplied every 2 weeks. Growth on YNB alone was used as a negative control. Growth on YNB+1% mannose was used as a positive control.

Sc-ABC = assay: Yeast cell survival, dilution plate assay; format: cell-based, Saccharomyces cerevisiae; settings: for Sc-ABC cells survived relative to Sc-V: one-hour treatment, 5 μL monoterpene, counted after 4 days; for Observation (B) Transformed Sc survival: GcABC-G1-dependent difference, Sc-ABC versus Sc-V; for relative inhibition of the yeast GcABC-G1 transformant by individual monoterpenoids: individual monoterpenoids compared
Method: The survival of Sc-V and Sc-ABC with individual monoterpenes was shown using a dilution plate assay. Overnight yeast cultures grown in SG broth were diluted to an OD600 of 0.2 and further grown to an OD600 of 0.4 at 28° C. The yeast cells were diluted to an appropriate density that was spread on SG media in Petri dishes glass (10^5 per petri dish). The yeast cells were treated for one hour with a specific monoterpene (5 μL) diluted in 245 μL ethanol; the solution was applied on five small filter papers placed inside the lid and the glass plates were sealed with DuraSeal film. After one-hour incubation, the chemical was removed and plates were further incubated for 4 days at 28° C. The numbers of surviving cells with and without monoterpene treatments were counted.

mutant Δgcabc-g1 [5] = assay: Growth on YNB with monoterpenes as sole carbon source; format: cell-based, Grosmannia clavigera
Method: as §4, §5

G. clavigera WT [6] = assay: Growth on MEA with individual diterpenes; format: cell-based, Grosmannia clavigera; settings: individual diterpene in MEA (0.1% per FIG. 8), pH ~8.0
Method: (§6) Growth rates were examined for G. clavigera WT and the mutant Δgcabc-g1 grown on MEA in the presence or absence of 200 μL of abietic acid, dehydroabietic acid and isopimaric acid as described in Example 3.A.2. Each diterpene was dissolved in a basic NaOH solution before being added into the MEA medium; the final pH of the medium was ˜8.0. Growth rates were calculated daily (mm/day). The results are shown in FIG. 8, which indicates growth rate in mm/24 hr for the average of three replicates. Error bar represents standard deviation.

mutant Δgcabc-g1 [7] = assay: Growth on MEA with individual diterpenes; format: cell-based, Grosmannia clavigera; settings: individual diterpene in MEA (0.1% per FIG. 8), pH ~8.0
Method: as §6

O. piceae = assay: Growth on YNB with quinic acid as sole carbon source; format: cell-based, Ophiostoma piceae; settings: YNB media
Excerpt: The cluster contains seven genes that include a quinate permease, two regulatory genes, one acting as an activator and the other as a repressor, and the four genes of the quinate/shikamate catabolic pathway (Asch et al. (1991) Mol Gen Genet 230(3):337-344, Giles et al. J Hered 82(1):1-7). The latter four catabolic genes (OPP_08735 to OPP_08738) reveal that O. piceae uses quinic acid in wood as a carbon source. While this gene cluster is reported in many fungi, this gene cluster was not identified in G. clavigera. […] Finally, a secreted lipase (OPP_00605) with a predicted triglycerides degradation activity was identified; its abundance relative to the control mannose was at least 50-fold.

[8] = MEA, 200 μL monoterpene, 6 days

SMILES: CC1=CCC2CC1C2(C)C (racemic) [α-pinene]
- growth delay of G. clavigera WT (G. clavigera WT [1]): not
- fungal growth rate, G. clavigera WT (G. clavigera WT [1]): ~7 mm/day
- growth delay of mutant Δgcabc-g1 (mutant Δgcabc-g1 [2]): 1 days
- fungal growth rate, mutant Δgcabc-g1 (mutant Δgcabc-g1 [2]): ~7 mm/day
- spore germination inhibition, G. clavigera [3]: not inhibited
- spore germination reduced, mutant Δgcabc-g1 ([4]; MEA, 200 μL monoterpene, 6 days, relative to non-treated control): 30%
- Observation (A) Gc spore survival ([4]; {}): + (Difference between with and without GcABC-G1 is less than 50%, P-value < 0.01)
- growth with monoterpene as sole carbon source, wildtype G. clavigera (Wildtype G. clavigera): not able to utilize
- Sc-ABC cells survived relative to Sc-V (Sc-ABC): not significantly different

SMILES: C=C(C)C1CC=C(C)CC1 (single isomer, unassigned; (+)) [(+)-limonene, R-(+)-limonene]
- growth delay of G. clavigera WT (G. clavigera WT [1]): 1 days
- growth delay of mutant Δgcabc-g1 (mutant Δgcabc-g1 [2]): 2 days
- growth rate of mutant Δgcabc-g1 lower than G. clavigera WT (mutant Δgcabc-g1 [2]): 52%
- spore germination partially reduced, G. clavigera [3]: ~70%
- Observation (A) Gc spore survival ([4]; GcABC-G1-dependent difference, Gc versus Δgcabc-g1): + (Difference between with and without GcABC-G1 is less than 50%, P-value < 0.01)
- spore germination, mutant Δgcabc-g1 [4, 8]: completely prevent spore germination
- growth with monoterpene as sole carbon source, wildtype G. clavigera (Wildtype G. clavigera): grew
- fate of mutant Δgcabc-g1 on YNB with monoterpene (mutant Δgcabc-g1 [5]; 10 μL): survived, but did not grow
- fate of mutant Δgcabc-g1 on YNB with monoterpene (mutant Δgcabc-g1 [5]; 200 μL): killed
- Observation (B) Transformed Sc survival (Sc-ABC): +++ (Difference between with and without GcABC-G1 is more than 50%, P-value < 0.01)
- relative inhibition of the yeast GcABC-G1 transformant by individual monoterpenoids (Sc-ABC): least inhibitory effect
- Sc-ABC cells survived relative to Sc-V (Sc-ABC): approximately 7 times

SMILES: CC1=CCC2C(C1)C2(C)C (centres unmarked) [3-carene]
- growth delay of G. clavigera WT (G. clavigera WT [1]): 1 days
- fungal growth rate, G. clavigera WT (G. clavigera WT [1]): 5 to 6 mm/day
- growth delay of mutant Δgcabc-g1 (mutant Δgcabc-g1 [2]): 2 days
- fungal growth rate, mutant Δgcabc-g1 (mutant Δgcabc-g1 [2]): 5 to 6 mm/day
- spore germination inhibition, G. clavigera [3]: not inhibited
- spore germination, mutant Δgcabc-g1 [4, 8]: completely prevent spore germination
- Observation (A) Gc spore survival ([4]; {}): +++ (Difference between with and without GcABC-G1 is more than 50%, P-value < 0.01)
- Observation (B) Transformed Sc survival (Sc-ABC): +++ (Difference between with and without GcABC-G1 is more than 50%, P-value < 0.01)
- Sc-ABC cells survived relative to Sc-V (Sc-ABC): approximately 30 times

SMILES: C=C1CC[C@H]2C[C@@H]1C2(C)C [(−)-β-pinene, (1S)-(−)-β-Pinene]
- growth delay of mutant Δgcabc-g1 (mutant Δgcabc-g1 [2]): up to 3 days
- growth rate of mutant Δgcabc-g1 lower than G. clavigera WT (mutant Δgcabc-g1 [2]): 60%
- spore germination partially reduced, G. clavigera [3]: ~70%
- spore germination, mutant Δgcabc-g1 [4, 8]: completely prevent spore germination
- Observation (A) Gc spore survival ([4]; {}): + (Difference between with and without GcABC-G1 is less than 50%, P-value < 0.01)
- growth with monoterpene as sole carbon source, wildtype G. clavigera (Wildtype G. clavigera): not able to utilize
- Observation (B) Transformed Sc survival (Sc-ABC): +++ (Difference between with and without GcABC-G1 is more than 50%, P-value < 0.01)
- relative inhibition of the yeast GcABC-G1 transformant by individual monoterpenoids (Sc-ABC): strongest inhibition effect
- Sc-ABC cells survived relative to Sc-V (Sc-ABC): ~3 times

SMILES: CC(C)C1=CC2=CC[C@@H]3[C@](C)(CCC[C@@]3(C)C(=O)O)[C@H]2CC1 [abietic acid]
- growth inhibition, G. clavigera WT (G. clavigera WT [6]): only slightly inhibited growth
- growth inhibition, mutant Δgcabc-g1 (mutant Δgcabc-g1 [7]): only slightly inhibited growth

SMILES: C=C[C@@]1(C)CC[C@H]2C(=CC[C@@H]3[C@]2(C)CCC[C@@]3(C)C(=O)O)C1 [isopimaric acid]
- growth inhibition, G. clavigera WT (G. clavigera WT [6]): only slightly inhibited growth
- growth inhibition, mutant Δgcabc-g1 (mutant Δgcabc-g1 [7]): only slightly inhibited growth

SMILES: O=C(O)[C@]1(O)C[C@@H](O)[C@@H](O)[C@H](O)C1 [quinic acid]
- growth of O. piceae with quinic acid as sole carbon source (O. piceae): grows
